The values below come from ChEMBL document CHEMBL5584245, “Structure-activity relationship of dual inhibitors containing maleimide and imidazole motifs against glutaminyl cyclase and glycogen synthase kinase-3β” (Bioorg Med Chem Lett, 2024).

What is called IC50 is the concentration at which inhibition is half-maximal. Lower therefore signals inhibition by little substance.

Test [1] concerns the target Glutaminyl-peptide cyclotransferase (Homo sapiens, UniProt Q16769). In words: Inhibition of glutaminyl cyclase (unknown origin).
Test [2] addresses Glycogen synthase kinase-3 beta (Homo sapiens, UniProt P49841). In words: Inhibition of GSK-3beta (unknown origin).

Sequence of Glycogen synthase kinase-3 beta (P49841 whole entry): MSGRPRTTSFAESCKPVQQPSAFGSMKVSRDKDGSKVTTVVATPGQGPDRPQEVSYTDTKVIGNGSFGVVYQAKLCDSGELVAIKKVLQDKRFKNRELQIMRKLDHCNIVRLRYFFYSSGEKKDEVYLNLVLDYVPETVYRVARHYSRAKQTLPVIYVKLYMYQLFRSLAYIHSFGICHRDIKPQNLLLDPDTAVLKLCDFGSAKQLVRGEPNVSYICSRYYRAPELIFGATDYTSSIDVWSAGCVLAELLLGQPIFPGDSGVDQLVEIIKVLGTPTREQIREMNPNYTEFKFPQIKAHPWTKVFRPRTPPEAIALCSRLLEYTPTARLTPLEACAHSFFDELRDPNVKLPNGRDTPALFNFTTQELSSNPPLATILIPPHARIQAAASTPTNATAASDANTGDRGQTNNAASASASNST
Sequence of Glutaminyl-peptide cyclotransferase (Q16769 whole entry): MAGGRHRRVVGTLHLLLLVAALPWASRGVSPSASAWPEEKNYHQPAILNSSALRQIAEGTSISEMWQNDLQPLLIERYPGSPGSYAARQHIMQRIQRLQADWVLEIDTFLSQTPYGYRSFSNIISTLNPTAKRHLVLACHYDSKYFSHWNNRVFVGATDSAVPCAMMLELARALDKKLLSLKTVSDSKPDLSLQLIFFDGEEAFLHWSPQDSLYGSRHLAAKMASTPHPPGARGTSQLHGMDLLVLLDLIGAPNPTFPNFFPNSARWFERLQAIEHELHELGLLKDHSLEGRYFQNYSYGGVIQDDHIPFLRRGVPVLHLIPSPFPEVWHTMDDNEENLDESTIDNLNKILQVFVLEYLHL

In the case of `Cc1cncn1CCCn1cc(C2=C(c3ccccc3F)C(=O)NC2=O)c2ccccc21`, the 50% inhibitory concentration (IC50) in test [1] was found to be 2760 nM; in test [2], 29 nM.
As to `COc1cccc(C2=C(c3cn(CCCn4cncc4C)c4ccccc34)C(=O)NC2=O)c1`, the IC50 in test [1] is 6320 nM; in test [2], 55 nM.
For `Cc1cncn1CCCn1cc(C2=C(c3ccc(OCCCn4ccnc4)cc3)C(=O)NC2=O)c2ccccc21` the same measures were 15000 nM and 104 nM.
The like results for `Cc1cncn1CCCn1cc(C2=C(c3ccc(OCCCN4CCCCC4)cc3)C(=O)NC2=O)c2ccccc21` were, in that order, 1120 nM and 87 nM.
The like results for `Cc1ccccc1C1=C(c2cn(CCCn3cncc3C)c3ccccc23)C(=O)NC1=O` were, in that order, 1760 nM and 59 nM.
As to `Cc1cncn1CCCn1cc(C2=C(c3ccc(OCCCCc4ccccc4)cc3)C(=O)NC2=O)c2ccccc21`, the IC50 in test [1] came to 6990 nM; in test [2], 192 nM.
Take `Cc1cncn1CCCn1cc(C2=C(c3cc(F)c(F)cc3F)C(=O)NC2=O)c2ccccc21`: the IC50 was 2600 nM in test [1] and 122 nM in test [2].
For `COc1cc(C2=C(c3cn(CCCn4cncc4C)c4ccccc34)C(=O)NC2=O)ccc1OCCCCc1ccccc1` the same measures were 26200 nM and 91 nM.
For `Cc1cncn1CCCn1cc(C2=C(c3ccc(OCCCCN4CCCC4)cc3)C(=O)NC2=O)c2ccccc21` the same measures were 1080 nM and 93 nM.
Take `Cc1cncn1CCCn1cc(C2=C(c3ccc(OCCCCN4CCN(C)CC4)cc3)C(=O)NC2=O)c2ccccc21`: the IC50 in test [1] was 3240 nM; in test [2], 15 nM.
For `Cc1cncn1CCCn1cc(C2=C(c3ccc(OCCCN4CCCC4)cc3)C(=O)NC2=O)c2ccccc21` the same measures were 3920 nM and 162 nM.
The like results for `COc1cc(C2=C(c3cn(CCCn4cncc4C)c4ccccc34)C(=O)NC2=O)ccc1OCCCc1ccccc1` were, in that order, 18100 nM and 177 nM.
The like results for `Cc1cncn1CCCn1cc(C2=C(c3ccccc3)C(=O)NC2=O)c2ccccc21` were, in that order, 2300 nM and 14 nM.
With `CCCOc1ccc(C2=C(c3cn(CCCn4cncc4C)c4ccccc34)C(=O)NC2=O)cc1`, the IC50 in test [1] came out at 20000 nM; in test [2], 150 nM.
The like results for `COc1ccccc1C1=C(c2cn(CCCn3cncc3C)c3ccccc23)C(=O)NC1=O` were, in that order, 1710 nM and 23 nM.
With `Cc1cncn1CCCn1cc(C2=C(c3ccc(OCCCCn4ccnc4)cc3)C(=O)NC2=O)c2ccccc21`, the figures for the IC50 in test [1] and in test [2] were 11200 nM and 133 nM, respectively.
The like results for `Cc1cncn1CCCn1cc(C2=C(c3ccc(OCCCN4CCN(c5ccccc5)CC4)cc3)C(=O)NC2=O)c2ccccc21` were, in that order, 9550 nM and 197 nM.
In the case of `COc1ccc(C2=C(c3cn(CCCn4cncc4C)c4ccccc34)C(=O)NC2=O)cc1OC`, the 50% inhibitory concentration (IC50) in test [1] turned out to be 4590 nM; in test [2] it was 36 nM.
For `Cc1cncn1CCCn1cc(C2=C(c3ccc(OCCCCN4CCOCC4)cc3)C(=O)NC2=O)c2ccccc21` the same measures were 2210 nM and 57 nM.
For `COc1cc(C2=C(c3cn(CCCn4cncc4C)c4ccccc34)C(=O)NC2=O)ccc1OCCCN1CCCCC1` the same measures were 1130 nM and 51 nM.
For `Cc1cncn1CCCn1cc(C2=C(c3ccc(OCCCN4CCOCC4)cc3)C(=O)NC2=O)c2ccccc21`, the IC50 was 1510 nM in test [1] and 178 nM in test [2].
For `Cc1cncn1CCCn1cc(C2=C(c3cccc([N+](=O)[O-])c3)C(=O)NC2=O)c2ccccc21`, the figures for the IC50 in test [1] and in test [2] were 6130 nM and 47 nM, respectively.
The like results for `COc1cc(C2=C(c3cn(CCCn4cncc4C)c4ccccc34)C(=O)NC2=O)ccc1OCCCCN1CCOCC1` were, in that order, 13000 nM and 59 nM.
For `Cc1cncn1CCCn1cc(C2=C(c3ccc(OCCCCN4CCCCC4)cc3)C(=O)NC2=O)c2ccccc21` the same measures were 2200 nM and 68 nM.
Regarding `Cc1cncn1CCCn1cc(C2=C(c3ccc([N+](=O)[O-])cc3)C(=O)NC2=O)c2ccccc21`, the IC50 was determined as 1890 nM in test [1] and 161 nM in test [2].
Consider `Cc1cccc(C2=C(c3cn(CCCn4cncc4C)c4ccccc34)C(=O)NC2=O)c1`, for which the IC50 in test [1] was determined as 6230 nM; in test [2], 103 nM.
Take `Cc1cncn1CCCn1cc(C2=C(c3ccccc3[N+](=O)[O-])C(=O)NC2=O)c2ccccc21`: the IC50 in test [1] was 1220 nM; in test [2], 2 nM.
For `Cc1cncn1CCCn1cc(C2=C(c3ccc(F)cc3)C(=O)NC2=O)c2ccccc21` the same measures were 3220 nM and 102 nM.
The like results for `COc1cc(C2=C(c3cn(CCCn4cncc4C)c4ccccc34)C(=O)NC2=O)ccc1OCCCCN1CCCCC1` were, in that order, 830 nM and 64 nM.
For `Cc1cncn1CCCn1cc(C2=C(c3ccc(OCCCc4ccccc4)cc3)C(=O)NC2=O)c2ccccc21` the same measures were 7970 nM and 182 nM.
`COc1cc(C2=C(c3cn(CCCn4cncc4C)c4ccccc34)C(=O)NC2=O)ccc1OCCCN1CCOCC1`: the IC50 in test [1] was determined as 7020 nM; in test [2], 89 nM.
For `Cc1cncn1CCCn1cc(C2=C(c3ccc(OCCCCN4CCN(c5ccccc5)CC4)cc3)C(=O)NC2=O)c2ccccc21` the same measures were 7630 nM and 200 nM.
Take `Cc1cncn1CCCn1cc(C2=C(c3ccc(OCCCN4CCN(C)CC4)cc3)C(=O)NC2=O)c2ccccc21`: the IC50 in test [1] came out at 1300 nM; in test [2] it was 74 nM.
For `Cc1cncn1CCCn1cc(C2=C(c3cccc(F)c3)C(=O)NC2=O)c2ccccc21` the same measures were 10800 nM and 64 nM.
As for `CCCCOc1ccc(C2=C(c3cn(CCCn4cncc4C)c4ccccc34)C(=O)NC2=O)cc1`, the results for the IC50 in test [1] and in test [2] were 10200 nM and 53 nM, respectively.
